Measured values from patent US20230271968A1, “PYRAZOLOPYRIMIDINE COMPOUND USED AS ATR KINASE INHIBITOR” (priority 2020, published 2023).
Read-outs that look alike come from different tables or passages of the source.

Experiments:
[1] = system: TOV21G (ovarian cancer) cells; assay: Cell proliferation inhibition in vitro, CellTiter-Glo luminescence, TOV21G; assay type: cell-based, human; settings: read-out: TOV21G/IC50/μM
Experimental: (§1) By detecting the effect of compounds on cell activity in vitro in tumor cell lines TOV21G (ovarian cancer) and MV4-11 (leukemia), the inhibitory effect of compounds on cell proliferation was studied in this assay.
(§2) TOV21G cells and MV4-11 cells were purchased from American Type Culture Collection (ATCC).
About 1000 cells were inoculated in each well of a 96-well culture plate, and cultured for 24 hours. Different concentrations (0-10 μM) of compounds to be assayed were added to treat the cells. Each group was assayed in triplicate. Blank wells (containing medium only) and control wells (inoculated cells without being treated with drug) were set. Cells were cultured for 120 hours. 40 μL of Cell Titer-Glo solutions (Promega, #G7573) were added to each well, and the cells were incubated with shaking for 20 min in the dark.
(§3) Inhibition rate (%)=100%×(control well−assay well)/(control well−blank well)

ATR kinase = ATR kinase (Homo sapiens (Human), UniProt Q13535); assay: Assay of ATR kinase activity (time-resolved fluorescence, phosphorylation of p53-derived protein); assay type: biochemical; settings: ATR/ATRIP, p53 substrate, 30 minutes at room temperature
Experimental: The amount of phosphorylated protein was determined by time-resolved fluorescence in this assay. The amount of phosphorylated protein was detected by anti-p53-phospho-(serine 15)-K-specific antibody (Cisbio, art. No.: 61GSTDLA) and d2 labeled anti-GST antibody (Cisbio, art. No. 61P08KAE). […] The reagents used above were purchased from Sigma or Invitrogen, except for those whose manufacturers were mentioned.
Operations were as Follows
4×p53 substrate working solution (40 nM) was prepared with 1×reaction buffer, and 2.5 μL of the 4×p53 substrate working solution was added to a 384-well analysis plate. […] 4×ATP working solution (2 mM) was prepared with deionized water, and 2.5 μL of the 4×ATP working solution was added to a 384-well analysis plate. The plates were incubated at room temperature in dark for 30 minutes. […] Finally, 5 μL of assay mixture (0.084 ng/μL Anti-phospho-p53 (ser15)-K and 5 ng/μL Anti-GST-d2) was added to the 384 well analysis plates, and incubated at room temperature overnight. The fluorescence signal was detected with ENVISION (Perkinelmer) instrument (excitation wavelength: 320 nm, emission wavelength: 665 nm and 615 nm). […] IC50 values of compounds were calculated by standard software for parameter fitting (GraphPad Prism 6.0).

MV4-11 (leukemia) cells = assay: Cell proliferation inhibition in vitro, CellTiter-Glo luminescence, MV4-11; assay type: cell-based, human; settings: MV4-11 cells, 120 hours
Experimental: as §1, §2
MV-4-11 cells were cultured in IMDM medium (containing 20% of FBS). About 10,000 cells were inoculated in each well of a 96-well culture plate, and treated by adding different concentrations (0-10 μM) of compounds to be assayed. Each group was assayed in triplicate. Blank wells (containing medium only) and control wells (inoculated cells without being treated with drug) were set. Cells were cultured for 120 hours. 40 μL of Cell Titer-Glo solutions were added to each well, and the cells were incubated with shaking for 20 min in the dark. 100 μL of solution was transferred from each well to a 96-well blank plate, and the luminescence value was read by Biotek Synergy H1 multifunctional microplate reader.
as §3

DNA-PK = DNA-PK (Homo sapiens (Human), UniProt P78527); assay: Kinase selectivity: inhibitory activity against DNA-PK; assay type: biochemical; settings: 3-fold serial dilution from 10 μM to 0.51 nM, 10 concentrations; read-out: IC50/DNAPK
Experimental: (§4) The compounds of the present disclosure were assayed for inhibition of the same family (ATM, DNA-PK, PI3K, mTOR): […]

[2] = In vivo pharmacokinetics in male ICR mice, oral gavage; settings: mouse, 10 mg/kg, plasma
Experimental: In vivo pharmacokinetic studies were performed on the compounds of the present disclosure.
Male ICR mice (3 mice/group) were administered orally by gavage at a dose of 10 mg/kg. The plasma samples were collected before administration (0 h) and after administration (0.25, 0.5, 1, 2, 4, 6, 8, 24 h). The collected samples were subjected to LC/MS/analysis, and the data were collected. The relevant pharmacokinetic parameters were calculated by Analyst v1.6.2 (AB Applied Biosystems Company, USA) software using the collected analytical data.

[3] = In vitro stability assay in human liver microsome; assay type: in vitro ADME; settings: human liver microsomes, compound 2.0 nM, with or without NADPH, within 60 minutes of incubation; read-out: Human liver microsome t1/2
Experimental: (§5) The compounds of the present disclosure were subjected to stability assay in liver microsome. The compound to be assayed (with a final concentration of 2.0 nM) was co-incubated with human/mouse liver microsomes with or without the addition of NADPH. The concentration of the compound in the supernatant was determined within 60 minutes of incubation.

ATM = ATM (Homo sapiens (Human), UniProt Q13315); assay: Kinase selectivity: inhibitory activity against ATM; assay type: biochemical; settings: 3-fold serial dilution from 10 μM to 0.51 nM, 10 concentrations
Experimental: as §4

[4] = In vitro stability assay in mouse liver microsome; assay type: in vitro ADME; settings: mouse liver microsomes, compound 2.0 nM, with or without NADPH, within 60 minutes of incubation; read-out: Mouse liver microsome t1/2
Experimental: as §5

PI3Kα = PI3Kα (Homo sapiens (Human), UniProt P42336); assay: Kinase selectivity: inhibitory activity against PI3Kα; assay type: biochemical; settings: 3-fold serial dilution from 10 μM to 0.51 nM, 10 concentrations
Experimental: as §4

mTOR = mTOR (Homo sapiens (Human), UniProt P42345); assay: Kinase selectivity: inhibitory activity against mTOR; assay type: biochemical; settings: 3-fold serial dilution from 10 μM to 0.51 nM, 10 concentrations
Experimental: as §4

PI3Kδ = PI3Kδ (Homo sapiens (Human), UniProt O00329); assay: Kinase selectivity: inhibitory activity against PI3Kδ; assay type: biochemical; settings: 3-fold serial dilution from 10 μM to 0.51 nM, 10 concentrations
Experimental: as §4

[5] = TOV21G cells, 120 hours, CellTiter-Glo
[6] = Homo sapiens, TOV21G cells, 120 hours, CellTiter-Glo

Chain of ATR kinase (Q13535 whole entry, looked up): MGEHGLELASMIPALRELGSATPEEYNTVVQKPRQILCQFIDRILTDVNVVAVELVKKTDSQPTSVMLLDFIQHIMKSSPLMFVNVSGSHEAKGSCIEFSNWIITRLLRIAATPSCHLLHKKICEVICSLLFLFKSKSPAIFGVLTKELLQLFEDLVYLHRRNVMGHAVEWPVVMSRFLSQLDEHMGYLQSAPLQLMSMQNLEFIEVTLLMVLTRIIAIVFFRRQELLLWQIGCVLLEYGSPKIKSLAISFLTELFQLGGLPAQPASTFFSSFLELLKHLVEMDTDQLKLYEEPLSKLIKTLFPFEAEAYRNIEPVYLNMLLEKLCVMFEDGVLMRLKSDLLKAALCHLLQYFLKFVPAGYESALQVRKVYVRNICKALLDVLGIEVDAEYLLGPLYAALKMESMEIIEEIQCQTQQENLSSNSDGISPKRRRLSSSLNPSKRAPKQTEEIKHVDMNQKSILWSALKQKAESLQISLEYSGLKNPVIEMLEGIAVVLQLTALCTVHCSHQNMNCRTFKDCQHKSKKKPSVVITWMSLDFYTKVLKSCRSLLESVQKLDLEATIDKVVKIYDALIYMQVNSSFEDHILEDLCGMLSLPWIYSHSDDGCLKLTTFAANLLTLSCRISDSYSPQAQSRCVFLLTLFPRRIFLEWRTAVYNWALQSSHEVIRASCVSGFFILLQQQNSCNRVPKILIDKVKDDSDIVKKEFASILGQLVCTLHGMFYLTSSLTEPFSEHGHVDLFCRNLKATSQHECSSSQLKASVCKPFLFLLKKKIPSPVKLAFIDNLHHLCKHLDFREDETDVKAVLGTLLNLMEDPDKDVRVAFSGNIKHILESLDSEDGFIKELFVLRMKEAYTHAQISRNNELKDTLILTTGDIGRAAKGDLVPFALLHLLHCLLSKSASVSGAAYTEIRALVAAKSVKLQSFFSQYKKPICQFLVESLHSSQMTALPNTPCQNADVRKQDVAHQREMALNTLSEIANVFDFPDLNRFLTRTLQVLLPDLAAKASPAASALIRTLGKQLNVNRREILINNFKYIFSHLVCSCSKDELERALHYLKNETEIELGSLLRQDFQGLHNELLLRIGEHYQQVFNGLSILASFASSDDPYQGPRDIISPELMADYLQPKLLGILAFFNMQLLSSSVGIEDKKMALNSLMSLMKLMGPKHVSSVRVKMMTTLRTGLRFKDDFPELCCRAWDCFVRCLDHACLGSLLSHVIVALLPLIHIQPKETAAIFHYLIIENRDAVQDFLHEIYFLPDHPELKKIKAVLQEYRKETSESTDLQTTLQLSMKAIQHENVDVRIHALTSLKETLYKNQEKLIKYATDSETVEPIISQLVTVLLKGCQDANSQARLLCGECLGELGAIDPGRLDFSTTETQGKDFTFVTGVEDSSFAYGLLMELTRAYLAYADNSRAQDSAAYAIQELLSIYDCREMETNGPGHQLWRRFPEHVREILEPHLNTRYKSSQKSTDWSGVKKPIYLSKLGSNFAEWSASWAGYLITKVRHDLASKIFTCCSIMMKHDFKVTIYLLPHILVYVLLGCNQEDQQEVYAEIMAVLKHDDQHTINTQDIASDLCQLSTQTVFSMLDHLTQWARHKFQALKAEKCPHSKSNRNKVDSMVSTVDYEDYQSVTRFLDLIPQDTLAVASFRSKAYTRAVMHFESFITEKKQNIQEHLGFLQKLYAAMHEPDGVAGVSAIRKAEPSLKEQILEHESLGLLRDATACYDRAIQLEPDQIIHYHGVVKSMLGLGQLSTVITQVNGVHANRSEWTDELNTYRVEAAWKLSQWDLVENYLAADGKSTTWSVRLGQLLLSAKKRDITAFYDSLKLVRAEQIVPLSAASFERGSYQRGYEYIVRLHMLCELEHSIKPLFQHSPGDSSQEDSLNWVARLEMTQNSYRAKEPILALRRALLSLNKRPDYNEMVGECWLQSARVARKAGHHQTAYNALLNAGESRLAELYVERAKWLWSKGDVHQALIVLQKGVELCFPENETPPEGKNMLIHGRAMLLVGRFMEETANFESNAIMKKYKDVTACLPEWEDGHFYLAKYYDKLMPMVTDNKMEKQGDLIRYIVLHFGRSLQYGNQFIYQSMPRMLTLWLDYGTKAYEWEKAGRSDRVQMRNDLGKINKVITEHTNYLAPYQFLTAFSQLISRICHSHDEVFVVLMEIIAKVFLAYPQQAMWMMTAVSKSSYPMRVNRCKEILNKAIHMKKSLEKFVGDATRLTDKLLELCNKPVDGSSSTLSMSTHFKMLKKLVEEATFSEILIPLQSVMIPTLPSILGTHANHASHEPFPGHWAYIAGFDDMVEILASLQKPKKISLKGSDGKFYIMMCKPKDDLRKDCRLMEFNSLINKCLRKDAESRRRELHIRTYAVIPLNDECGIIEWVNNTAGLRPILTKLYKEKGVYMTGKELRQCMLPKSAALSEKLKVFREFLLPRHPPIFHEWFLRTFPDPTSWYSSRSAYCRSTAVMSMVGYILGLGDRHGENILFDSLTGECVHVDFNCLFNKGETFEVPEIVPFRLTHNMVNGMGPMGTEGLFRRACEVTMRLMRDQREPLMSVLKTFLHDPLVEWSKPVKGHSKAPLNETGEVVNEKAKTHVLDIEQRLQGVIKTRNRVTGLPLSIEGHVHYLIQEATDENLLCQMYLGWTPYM
Chain of ATR kinase (Q8WXE1 whole entry partner, looked up): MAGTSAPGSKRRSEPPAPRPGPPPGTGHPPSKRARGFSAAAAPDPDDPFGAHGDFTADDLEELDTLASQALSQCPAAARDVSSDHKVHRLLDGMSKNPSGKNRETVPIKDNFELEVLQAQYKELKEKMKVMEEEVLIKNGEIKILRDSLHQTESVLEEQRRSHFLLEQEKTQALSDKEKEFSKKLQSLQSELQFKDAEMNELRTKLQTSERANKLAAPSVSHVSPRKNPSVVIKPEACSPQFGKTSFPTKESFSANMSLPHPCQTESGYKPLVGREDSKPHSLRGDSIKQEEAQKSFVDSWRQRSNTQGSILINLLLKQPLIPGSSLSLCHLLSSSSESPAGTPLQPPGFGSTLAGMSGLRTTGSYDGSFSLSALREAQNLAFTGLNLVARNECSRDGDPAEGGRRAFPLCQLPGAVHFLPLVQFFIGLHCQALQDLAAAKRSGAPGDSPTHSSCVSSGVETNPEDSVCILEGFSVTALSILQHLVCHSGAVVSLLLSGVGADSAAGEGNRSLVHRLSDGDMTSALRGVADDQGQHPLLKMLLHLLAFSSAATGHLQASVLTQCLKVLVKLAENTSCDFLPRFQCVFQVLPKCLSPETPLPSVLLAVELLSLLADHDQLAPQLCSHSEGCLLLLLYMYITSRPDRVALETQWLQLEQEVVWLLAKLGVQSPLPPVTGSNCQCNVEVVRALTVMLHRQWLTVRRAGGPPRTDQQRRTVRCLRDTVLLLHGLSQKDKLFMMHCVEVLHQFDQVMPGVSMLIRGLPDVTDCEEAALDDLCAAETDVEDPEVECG

| Compound | IC50 [1, 5] | IC50 (ATR kinase) | IC50 (MV4-11 (leukemia) cells) | IC50 [1, 6] | IC50 (MV4-11 (leukemia) cells; Homo sapiens) | other results |
| --- | --- | --- | --- | --- | --- | --- |
| Cc1nn(C(=O)N2CCNCC2)c(C)c1-c1cc(N2CCOC[C@H]2C)nc2c(-c3ccn[nH]3)cnn12 [Compound A15] | 0.27 µM | 13 nM | 0.45 µM |  |  |  |
| Cc1nn(-c2cncc(C(N)=O)c2)c(C)c1-c1cc(N2CCOC[C@H]2C)nc2c(-c3ccn[nH]3)cnn12 [Compound A17] | 1.29 µM | 3 nM | 0.85 µM |  |  |  |
| Cc1c(-c2cc(N3CCOC[C@H]3C)nc3c(-c4ccn[nH]4)cnn23)c(C(F)(F)F)nn1C1CCNCC1 [Compound A2] |  | 33 nM |  | 0.83 µM | 0.78 µM |  |
| Cc1nn(-c2cncc(C(F)F)c2)c(C)c1-c1cc(N2CCOC[C@H]2C)nc2c(-c3ccn[nH]3)cnn12 [Compound A10] |  | 3 nM |  |  | 0.27 µM | IC50 (DNA-PK): 1260 nM; IC50 ([1]; Homo sapiens, TOV21G, 120 h): 0.3 µM; AUC [2]: 14300 ng·h/mL; Cmax [2]: 4890 ng/mL; Tmax [2]: 15 min; half-life [2]: 106 min; half-life at 2 nM [3]: 36 min; IC50 (ATM): 4.12 µM; half-life at 2 nM [4]: 162 min |
| Cc1nn(-c2cccnc2)c(C)c1-c1cc(N2CCOC[C@H]2C)nc2c(-c3ccn[nH]3)cnn12 [Compound A22] |  | 2 nM |  | 0.19 µM | 0.23 µM |  |
| Cc1nn(C2CCNCC2)c(C(F)(F)F)c1-c1cc(N2CCOC[C@H]2C)nc2c(-c3ccccn3)cnn12 [Compound A6] |  | 17 nM |  |  |  |  |
| Cc1nn(-c2ccnnc2)c(C)c1-c1cc(N2CCOC[C@H]2C)nc2c(-c3ccn[nH]3)cnn12 [Compound A13] |  | 2 nM |  | 0.21 µM | 0.28 µM |  |
| Cc1nn(C2CCNCC2)c(C(F)(F)F)c1-c1cc(N2CCOC[C@H]2C)nc2c(-c3cccs3)cnn12 [Compound A7] |  | 12 nM |  |  |  |  |
| Cc1noc(C)c1-c1cc(N2CCOC[C@H]2C)nc2c(-c3ccn[nH]3)cnn12 [Compound A4] |  | 74 nM |  | 1.05 µM | 0.75 µM |  |
| Cc1nn(-c2cncc(C#N)c2)c(C)c1-c1cc(N2CCOC[C@H]2C)nc2c(-c3ccn[nH]3)cnn12 [Compound A11] |  |  |  | 0.38 µM | 0.5 µM |  |
| Cc1nn(-c2cncc(O)c2)c(C)c1-c1cc(N2CCOC[C@H]2C)nc2c(-c3ccn[nH]3)cnn12 [Compound A19] | 0.66 µM | 4 nM | 0.6 µM |  |  |  |
| C[C@@H]1COCCN1c1cc(C2(O)CCOCC2)n2ncc(-c3ccn[nH]3)c2n1 [Compound A20] | 0.73 µM | 188 nM | 0.92 µM |  |  |  |
| Cc1nnn(C)c1-c1cc(N2CCOC[C@H]2C)nc2c(-c3ccn[nH]3)cnn12 [Compound A8] | 0.78 µM | 84 nM | 0.68 µM |  |  |  |
| Cc1nn(-c2ccc(=O)[nH]c2)c(C)c1-c1cc(N2CCOC[C@H]2C)nc2c(-c3ccn[nH]3)cnn12 [Compound A14] |  | 3 nM |  |  |  |  |
| Cc1nn(-c2ccncc2)c(C)c1-c1cc(N2CCOC[C@H]2C)nc2c(-c3ccn[nH]3)cnn12 [Compound A24] |  | 2 nM |  | 0.15 µM | 0.23 µM |  |
| C[C@@H]1COCCN1c1cc(-c2cccnc2C(F)(F)F)n2ncc(-c3ccn[nH]3)c2n1 [Compound A21] |  | 52 nM |  | 0.63 µM | 0.74 µM |  |
| Cc1nn(C2CCNCC2)c(C(F)(F)F)c1-c1cc(N2CCOC[C@H]2C)nc2c(-c3ccn[nH]3)cnn12 [Compound A1] |  | 70 nM |  | 0.66 µM | 0.66 µM |  |
| Cc1nn(C2CCNC[C@H]2F)c(C)c1-c1cc(N2CCOC[C@H]2C)nc2c(-c3ccn[nH]3)cnn12 (some centres unmarked) [Compound A16-II] | 0.52 µM | 31 nM | 0.57 µM |  |  |  |
| Cc1nn(-c2cncc(F)c2)c(C)c1-c1cc(N2CCOC[C@H]2C)nc2c(-c3ccn[nH]3)cnn12 [Compound A9] |  | 2 nM |  |  | 0.25 µM | IC50 (DNA-PK): 303 nM; IC50 ([1]; Homo sapiens, TOV21G, 120 h): 0.28 µM; AUC [2]: 6950 ng·h/mL; Cmax [2]: 1810 ng/mL; Tmax [2]: 15 min; half-life [2]: 198 min; IC50 (PI3Kα): 4.06 µM; half-life at 2 nM [3]: 86 min; IC50 (mTOR): 1830 nM; IC50 (PI3Kδ): 1130 nM; IC50 (ATM): 6.37 µM; half-life at 2 nM [4]: 218 min |
| Cc1nn(CCO)c(C)c1-c1cc(N2CCOC[C@H]2C)nc2c(-c3ccn[nH]3)cnn12 [Compound A18] | 0.56 µM | 8 nM | 0.74 µM |  |  |  |
| Cc1nn(-c2cncc(Cl)c2)c(C)c1-c1cc(N2CCOC[C@H]2C)nc2c(-c3ccn[nH]3)cnn12 [Compound A12] |  | 2 nM |  | 0.33 µM | 0.26 µM | AUC [2]: 8330 ng·h/mL; Cmax [2]: 2270 ng/mL; Tmax [2]: 19.8 min; half-life [2]: 119 min |
| Cc1cncc(-n2nc(C)c(-c3cc(N4CCOC[C@H]4C)nc4c(-c5ccn[nH]5)cnn34)c2C)c1 [Compound A23] |  | 4 nM |  | 0.26 µM | 0.3 µM |  |
| Cc1nn(C2CCNC[C@@H]2F)c(C)c1-c1cc(N2CCOC[C@H]2C)nc2c(-c3ccn[nH]3)cnn12 (some centres unmarked) [Compound A16-I] | 1.4 µM | 33 nM | 0.89 µM |  |  |  |
| Cc1nn(C2CCNCC2)c(C)c1-c1cc(N2CCOC[C@H]2C)nc2c(-c3ccn[nH]3)cnn12 [Compound A3] |  | 184 nM |  |  |  |  |
